Three molecules from BindingDB's records for doi:10.1074/jbc.M109.089946 (Merck Research Laboratories, 2010) can be followed below.

Experiment [1] addresses T1, 3-phosphoinositide-dependent protein kinase 1 (Homo sapiens, UniProt O15530).
T1 sequence (O15530 whole entry): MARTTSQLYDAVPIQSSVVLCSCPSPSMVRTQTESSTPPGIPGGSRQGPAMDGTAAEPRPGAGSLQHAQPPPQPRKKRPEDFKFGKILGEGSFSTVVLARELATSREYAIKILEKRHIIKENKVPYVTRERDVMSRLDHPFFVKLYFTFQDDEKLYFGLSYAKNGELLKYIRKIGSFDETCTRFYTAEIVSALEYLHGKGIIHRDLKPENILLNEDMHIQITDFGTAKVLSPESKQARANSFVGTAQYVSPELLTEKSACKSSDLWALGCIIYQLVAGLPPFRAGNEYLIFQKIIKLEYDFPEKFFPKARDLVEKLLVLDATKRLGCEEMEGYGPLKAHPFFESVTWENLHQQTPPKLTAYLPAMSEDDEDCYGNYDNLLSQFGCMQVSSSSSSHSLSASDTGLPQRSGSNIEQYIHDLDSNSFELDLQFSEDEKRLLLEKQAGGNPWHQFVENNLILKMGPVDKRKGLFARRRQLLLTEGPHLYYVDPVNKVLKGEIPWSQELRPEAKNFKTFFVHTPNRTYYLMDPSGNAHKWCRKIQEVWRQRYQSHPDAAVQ
As to the kind of experiment: TR-Fret Assay. The text has this:
1536-Well TR-Fret uHTS assay PDK1-tide1 peptide substrate.

Experiment [2] concerns the target 3-phosphoinositide-dependent protein kinase 1 (Homo sapiens) (UniProt O15530). Description: 384-Well TR-Fret assay using AKT-tide peptide substrate.

As to `CC(C)(C)c1nc2c3ccc(F)cc3c3c(=O)[nH]ccc3c2[nH]1` [Jak Inhibitor 1], the IC50 in experiment [1] was determined as 20 nM; in experiment [2], 28 nM.

In the case of `Cc1[nH]nc2c1c(=O)n(CCCN)c1ccc(Br)cc21` [Compound # 1], the values for the IC50 in experiment [1] and in experiment [2] were 11 nM and 14 nM, respectively.

With `CCCCCNC(=O)O[C@@H]1CC[C@@H]2[C@@H](C(=O)Nc3ccc(N(C)C)cc3)C[C@H]1N2CCC(C)C` [Alkaloid 2], the IC50 is 18000 nM in experiment [1] and > 30000 nM in experiment [2].
